Test results reported in US12091425B2 (AMGEN INC., priority 2016, dated 2024).

target: T1, Mcl-1/Bim interaction, recombinant human Mcl-1 (171-327) (Homo sapiens, UniProt Q07820); test: Cell free Mcl-1: Bim Affinity Assay (Mcl-1 HTRF); type: binding; conditions: cell free Mcl-1:Bim TR-FRET, recombinant human Mcl-1 (171-327)
T1 construct: made in house
How it was run: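 TR-FRET competition assay with biotinylated human Bim peptide (residues 51-76); reaction plates incubated overnight before reading. IC50 values came from duplicate data fitted to a four-parameter sigmoidal competition curve.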

T1 sequence (Q07820 171-327): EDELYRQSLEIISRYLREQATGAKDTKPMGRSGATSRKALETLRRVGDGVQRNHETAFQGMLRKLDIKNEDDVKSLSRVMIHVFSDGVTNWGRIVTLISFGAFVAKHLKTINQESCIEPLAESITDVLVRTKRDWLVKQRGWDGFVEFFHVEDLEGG

Compound	IC50 [nM]
O=C1NS(=O)(=O)CCCCC[C@@H](CO)[C@@H]2CC[C@H]2CN2C[C@@]3(CCCc4cc(Cl)ccc43)COc3ccc1cc32 (single isomer, unassigned) [Example 898, (1S,3′R,6′R,7′R)-6-chloro-7′-(hydroxymethyl)-3,4-dihydro-2H,15′H-spiro[naphthalene-1,22′-[20]oxa[13]thia[1,14]diazatetracyclo[14.7.2.0^3,6.0^19,24]pentacosa [16,18,24]trien]-15′-one 13′,13′-dioxide or (1S,3′R,6′R,7′S)-6-chloro-7′-(hydroxymethyl)-3,4-dihydro-2H,15′H-spiro[naphthalene-1,22′[20]oxa[13]thia[1,14]diazatetracyclo[14.7.2.0^3,6.0^19,24]pentacosa[16,18,24]trien]-15′-one 13′,13′-dioxide]	4.03
O=C1NS(=O)(=O)CCC[C@]2(O)CCO[C@H](C2)[C@@H]2CC[C@H]2CN2C[C@@]3(CCCc4cc(Cl)ccc43)COc3ccc1cc32 (single isomer, unassigned) [Example 900]	4.33
O=C1NS(=O)(=O)CCCCC[C@@H](CO)[C@@H]2CC[C@H]2CN2C[C@@]3(CCCc4cc(Cl)ccc43)COc3ccc1cc32 (single isomer, unassigned) [Example 906, (1S,3′R,6′R,7′R)-6-chloro-7′-(hydroxymethyl)-3,4-dihydro-2H,15′H-spiro[naphthalene-1,22′-[20]oxa[13]thia[1,14]diazatetracyclo[14.7.2.0^3,6.0^19,24]pentacosa [16,18,24]trien]-15′-one 13′,13′-dioxide or (1S,3′R,6′R,7′)-6-chloro-7′-(hydroxymethyl)-3,4-dihydro-2H,15′H-spiro[naphthalene-1,22′-[20]oxa[13]thia[1,14]diazatetracyclo[14.7.2.0^3,6.0^19,24]pentacosa [16,18,24]trien]-15′-one 13′,13′-dioxide]	9.03
C[C@@H]1CCCCCS(=O)(=O)NC(=O)c2ccc3c(c2)N(C[C@@H]2CC[C@H]21)C[C@@]1(CCCc2cc(Cl)ccc21)CO3 (single isomer, unassigned) [Example 907, (1S,3′R,6′S, 7′R)-6-chloro-7′-methyl-3,4-dihydro-2H,15′H-spiro[naphthalene-1,22′-[20]oxa[13]thia[1,14]diazatetracyclo[14.7.2.0^3,6.0^19,24]pentacosa [16,18,24]trien]-15′-one 13′,13′-dioxide or (1S,3′R,6′S, 7′S)-6-chloro-7′-methyl-3,4-dihydro-2H,15′H-spiro[naphthalene-1,22′-[20]oxa[13]thia[1,14]diazatetracyclo[14.7.2.0^3,6.0^19,24]pentacosa [16,18,24]trien]-15′-one 13′,13′-dioxide]	18.9
O=C1NS(=O)(=O)CCCC2(O)CCOC(C2)C2CCC2CN2CC3(CCCc4cc(Cl)ccc43)COc3ccc1cc32 (single isomer, unassigned) [Example 910]	5.8
O=C1NS(=O)(=O)C/C=C/C[C@@H](O)C[C@@H]2CC[C@H]2CN2C[C@@]3(CCCc4cc(Cl)ccc43)COc3ccc1cc32 (single isomer, unassigned) [Example 912]	7.78
O=C1NS(=O)(=O)CC=CCC(O)CC2CCC2CN2CC3(CCCc4cc(Cl)ccc43)COc3ccc1cc32 (single isomer, unassigned) [Example 913]	6.1
O=C1NS(=O)(=O)C/C=C\C[C@@H](O)C[C@@H]2CC[C@H]2CN2C[C@@]3(CCCc4cc(Cl)ccc43)COc3ccc1cc32 (single isomer, unassigned) [Example 914]	1.87
O=C1NS(=O)(=O)/C=C/COC[C@@H](O)[C@@H]2CC[C@H]2CN2C[C@@]3(CCCc4cc(Cl)ccc43)COc3ccc1cc32 (single isomer, unassigned) [Example 917, (3R,6R,7S,11E,22S)-6′-chloro-7-hydroxy-3′,4′-dihydro-2′H,15H-spiro[9,20-dioxa-13-thia-1,14-diazatetracyclo[14.7.2.0^3,6.0^19,24]pentacosa-11,16,18,24-tetraene-22,1′-naphthalen]-15-one 13,13-dioxide or (3R,6R,7R,11E, 22S)-6′-chloro-7-hydroxy-3′,4′-dihydro-2′H,15H-spiro[9,20-dioxa-13-thia-1,14-diazatetracyclo[14.7.2.0^3,6.0^19,24]pentacosa-11,16,18,24-tetraene-22,1′-naphthalen]-15-one 13,13-dioxide]	4.11
O=C1NS(=O)(=O)CCCOC[C@@H](O)[C@@H]2CC[C@H]2CN2C[C@@]3(CCCc4cc(Cl)ccc43)COc3ccc1cc32 (single isomer, unassigned) [Example 923, (3R,6R,7S,22S)-6′-chloro-7-hydroxy-3′,4′-dihydro-2′H,15H-spiro[9,20-dioxa-13-thia-1,14-diazatetracyclo[14.7.2.0^3,6.0^19,24]pentacosa-16,18,24-triene-22,1′-naphthalen]-15-one 13,13-dioxide or (3R,6R,7R,22S)-6′-chloro-7-hydroxy-3′,4′-dihydro-2′H,15H-spiro[9,20-dioxa-13-thia-1,14-diazatetracyclo[14.7.2.0^3,6.0^19,24]pentacosa-16,18,24-triene-22,1′-naphthalen]-15-one 13,13-dioxide]	17.8
O=C1NS(=O)(=O)CCC[C@]2(O)CCO[C@H](C2)[C@@H]2CC[C@H]2CN2C[C@@]3(CCCc4cc(Cl)ccc43)COc3ccc1cc32 (single isomer, unassigned) [Example 924]	5.07
CN[C@H]1CCCCCS(=O)(=O)NC(=O)c2ccc3c(c2)N(C[C@@H]2CC[C@H]21)C[C@@]1(CCCc2cc(Cl)ccc21)CO3 (single isomer, unassigned) [Example 927, (1S,3′R,6′R,7′S)-6-chloro-7′-(methylamino)-3,4-dihydro-2H,15′H-spiro[naphthalene-1,22′-[20]oxa[13]thia[1,14]diazatetracyclo[14.7.2.0^3,6.0^19,24]pentacosa [16,18,24]trien]-15′-one 13′,13′-dioxide or (1S,3′R,6′R,7′R)-6-chloro-7′-(methylamino)-3,4-dihydro-2H,15′H-spiro[naphthalene-1,22′-[20]oxa[13]thia[1,14]diazatetracyclo[14.7.2.0^3,6.0^19,24]pentacosa [16,18,24]trien]-15′-one 13′,13′-dioxide]	46.2
O=C1NS(=O)(=O)CCCCC[C@H](NCCO)[C@@H]2CC[C@H]2CN2C[C@@]3(CCCc4cc(Cl)ccc43)COc3ccc1cc32 (single isomer, unassigned) [Example 929]	40
O=C1NS(=O)(=O)CCCCC[C@@H](NCC(F)(F)F)[C@@H]2CC[C@H]2CN2C[C@@]3(CCCc4cc(Cl)ccc43)COc3ccc1cc32 (single isomer, unassigned) [Example 930]	19.6
O=C1NS(=O)(=O)CCCCC[C@@H](NO)[C@@H]2CC[C@H]2CN2C[C@@]3(CCCc4cc(Cl)ccc43)COc3ccc1cc32 (single isomer, unassigned) [Example 933, (1S,3′R,6′R,7′R)-6-chloro-7′-(hydroxyamino)-3,4-dihydro-2H,15′H-spiro[naphthalene-1,22′-[20]oxa[13]thia[1,14]diazatetracyclo[14.7.2.0^3,6.0^19,24]pentacosa [16,18,24]trien]-15′-one 13′,13′-dioxide or (1S,3′R,6′R,7′S)-6-chloro-7′-(hydroxyamino)-3,4-dihydro-2H,15′H-spiro[naphthalene-1,22′-[20]oxa[13]thia[1,14]diazatetracyclo[14.7.2.0^3,6.0^19,24]pentacosa [16,18,24]trien]-15′-one 13′,13′-dioxide]	15
CC(=O)N[C@@H]1CCCCCS(=O)(=O)NC(=O)c2ccc3c(c2)N(C[C@@H]2CC[C@H]21)C[C@@]1(CCCc2cc(Cl)ccc21)CO3 (single isomer, unassigned) [Example 935, N-((1S,3′R,6′R,7′R)-6-chloro-13′,13′-dioxido-15′-oxo-3,4-dihydro-2H-spiro[naphthalene-1,22′-[20]oxa[13]thia[1,14]diazatetracyclo[14.7.2.0^3,6.0^19,24]pentacosa [16,18,24]trien]-7′-yl)acetamide or N-((1S,3′R,6′R,7′S)-6-chloro-13′,13′-dioxido-15′-oxo-3,4-dihydro-2H-spiro[naphthalene-1,22′-[20]oxa[13]thia[1,14]diazatetracyclo[14.7.2.0^3,6.0^19,24]pentacosa [16,18,24]trien]-7′-yl)acetamide]	2.07
CC(C)C(=O)N[C@@H]1CCCCCS(=O)(=O)NC(=O)c2ccc3c(c2)N(C[C@@H]2CC[C@H]21)C[C@@]1(CCCc2cc(Cl)ccc21)CO3 (single isomer, unassigned) [Example 936]	4.74
O=C1NS(=O)(=O)CCCCC[C@@H](NC(=O)C2CC2)[C@@H]2CC[C@H]2CN2C[C@@]3(CCCc4cc(Cl)ccc43)COc3ccc1cc32 (single isomer, unassigned) [Example 937]	4.75
CS(=O)(=O)N[C@@H]1CCCCCS(=O)(=O)NC(=O)c2ccc3c(c2)N(C[C@@H]2CC[C@H]21)C[C@@]1(CCCc2cc(Cl)ccc21)CO3 (single isomer, unassigned) [Example 938]	5.94
O=C(CO)N[C@@H]1CCCCCS(=O)(=O)NC(=O)c2ccc3c(c2)N(C[C@@H]2CC[C@H]21)C[C@@]1(CCCc2cc(Cl)ccc21)CO3 (single isomer, unassigned) [Example 939]	6.67
CC(=O)N(C)[C@H]1CCCCCS(=O)(=O)NC(=O)c2ccc3c(c2)N(C[C@@H]2CC[C@H]21)C[C@@]1(CCCc2cc(Cl)ccc21)CO3 (single isomer, unassigned) [Example 940]	18.6
CC(=O)N(C)[C@@H]1CCCCCS(=O)(=O)NC(=O)c2ccc3c(c2)N(C[C@@H]2CC[C@H]21)C[C@@]1(CCCc2cc(Cl)ccc21)CO3 (single isomer, unassigned) [Example 941]	8.33
CN(C(=O)C1CC1)C1CCCCCS(=O)(=O)NC(=O)c2ccc3c(c2)N(CC2CCC21)CC1(CCCc2cc(Cl)ccc21)CO3 (single isomer, unassigned) [Example 942]	36.4
CN(C(=O)C1CC1)[C@@H]1CCCCCS(=O)(=O)NC(=O)c2ccc3c(c2)N(C[C@@H]2CC[C@H]21)C[C@@]1(CCCc2cc(Cl)ccc21)CO3 (single isomer, unassigned) [Example 943]	16.2
